Where two headings read alike, the source gives them in different places.
Target: T1, recombinant human Tie-2 protein (Homo sapiens, UniProt Q02763)
T1 construct: purchased Thermo Fisher Scientific Inc. PV3628
Assay: Z′-Lyte FRET enzymatic activity assay of Tie-2 kinase
Assay type: biochemical
Conditions: for Tie-2 inhibitory activity in words (active / inactive): VS candidates of Strategy 1, preliminary screening at 10 μg/mL; for inhibition at 5 µg/mL: 5 μg/mL, n ≥ 2, read-out: Kinase Inhibition (%) at 5 μg/mL (± SD)

[1] = 10 μg/mL preliminary screening, Table S1
[2] = Z′-Lyte assay, 100 μM ATP, n ≥ 2 per concentration, read-out: IC50 (half-maximal inhibitory concentration), Tie-2 kinase

T1 sequence (Q02763 23-1124): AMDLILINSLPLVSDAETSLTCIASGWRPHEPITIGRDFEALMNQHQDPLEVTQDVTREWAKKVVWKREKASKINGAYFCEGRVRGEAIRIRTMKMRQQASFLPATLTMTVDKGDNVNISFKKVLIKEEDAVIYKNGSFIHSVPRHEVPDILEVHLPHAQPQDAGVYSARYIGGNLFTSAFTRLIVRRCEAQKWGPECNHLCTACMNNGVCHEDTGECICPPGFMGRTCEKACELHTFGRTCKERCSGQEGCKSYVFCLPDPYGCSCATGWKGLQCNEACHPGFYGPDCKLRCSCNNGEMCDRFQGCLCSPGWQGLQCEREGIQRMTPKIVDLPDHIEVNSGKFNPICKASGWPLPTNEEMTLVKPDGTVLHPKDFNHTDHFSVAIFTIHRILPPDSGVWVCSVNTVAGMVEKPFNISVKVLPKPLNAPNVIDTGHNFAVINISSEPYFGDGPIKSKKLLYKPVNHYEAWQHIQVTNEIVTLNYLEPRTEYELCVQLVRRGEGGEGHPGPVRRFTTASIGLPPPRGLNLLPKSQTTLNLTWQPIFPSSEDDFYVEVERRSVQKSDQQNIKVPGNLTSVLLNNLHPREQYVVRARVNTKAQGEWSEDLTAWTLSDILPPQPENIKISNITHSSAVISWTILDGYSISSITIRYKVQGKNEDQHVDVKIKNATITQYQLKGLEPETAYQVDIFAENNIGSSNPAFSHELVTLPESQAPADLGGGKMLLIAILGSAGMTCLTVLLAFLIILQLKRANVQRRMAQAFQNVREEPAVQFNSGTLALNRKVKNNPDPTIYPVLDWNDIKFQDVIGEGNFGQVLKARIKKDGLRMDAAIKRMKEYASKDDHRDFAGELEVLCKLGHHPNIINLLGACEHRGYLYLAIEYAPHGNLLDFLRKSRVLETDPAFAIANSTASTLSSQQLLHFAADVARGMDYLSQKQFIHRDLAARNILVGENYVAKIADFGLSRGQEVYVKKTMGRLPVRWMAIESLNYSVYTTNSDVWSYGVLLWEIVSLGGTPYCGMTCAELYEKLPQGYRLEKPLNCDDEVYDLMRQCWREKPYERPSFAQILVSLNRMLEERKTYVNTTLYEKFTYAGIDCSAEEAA
Description: In order to assess the biological inhibitory activity of the VS compounds, Z’-Lyte enzymatic activity assay based on FRET (Fluorescence Resonance Energy Transfer) technology was developed as described above. […] At first, all the compounds obtained from both filtering strategies were preliminary screened for their ability to inhibit Tie-2 kinase activity at the concentration of 10 μg/mL.
The Tie-2 kinase inhibitor (CAS#: 948557-43-5, purity ≥ 97%) was purchased from Merck Calbiochem (Darmstadt, Germany) and used as a positive control inhibitor in bioassays[40]. […] All the purchased screening compounds were firstly dissolved in dimethyl sulfoxide (DMSO) at a stock concentration of 5 mg/ml. The final working concentration of DMSO is less than 1%.
Compounds were tested for their ability to inhibit Tie-2 kinase activity using Z′-Lyte® kinase assay kit (ser/thr 5 peptide) with NUNC 384-well plate. In the first step, the test compounds and ATP solution were firstly prepared at 4 × desired concentration. The mixture of recombinant human Tie-2 protein and non-phosphorylated peptide at 2 × desired concentration was prepared in kinase reaction buffer A consisting of 50 mM HEPES (pH 7.5), 0.01% BRIJ-35, 10 mM MgCl2, 4 mM MnCl2, 1 mM EGTA and 2 mM DTT. Reactions were then carried out in a solution containing 2.5 μL test compounds, 5 μL Tie-2/Tyr 05 peptide mixture (10 ng Tie-2 and 2 μM Tyr 05 peptide) and 2.5 μL ATP (100 μM). Then, the assay plate was shaken for 30 seconds on a plate shaker, and incubated for 1 hour at room temperature (20~25 °C). After sufficient kinase reactions, 5 μL development reagent A was added to each well, and the plate was incubated for another hour. Finally, 5 μL stop reagent was added to terminate the reactions, and the coumarin and fluorescein emission signals (excitation: 400 nm; emission: 445 and 520 nm, respectively) were measured on a fluorescence plate reader (BioTek Synergy 4).

SMILES | Inhibition (%) @10 μg/ml [1] [%] | also measured
CCc1cc2c(-c3ccccc3)cc(=O)oc2cc1OCC(=O)c1ccc(F)cc1 [TP-C2-18] | 43.81±7.48 | –
Cc1cccc(C(=O)Nc2ccc(-c3cc4ccccc4oc3=O)cc2)c1 [TP-C1-12] | 3.6±13.1 | –
Cc1ccc(-c2cc(C(=O)OCC(=O)c3ccccc3)c3cccc(C)c3n2)cc1 [TP-C1-13] | 28.98±1.34 | Tie-2 inhibitory activity in words (active / inactive): inactive
CCOc1ccc(CN(CCc2ccc3c(c2)OCO3)Cc2ccc(C)cc2)cc1 [TP-C1-9] | 17.49±0.65 | –
COc1cc(C(=O)n2c(SCc3ccc(F)cc3)nc3ccccc32)cc(OC)c1OC [TP-C1-22] | -46.75±1.97 | –
COc1ccc(-c2cc3ccccc3oc2=O)cc1NC(=O)c1cccnc1 [TP-C2-31] | 51.93±0.22 | –
Cc1cc(NC(=S)NC(=O)c2ccccc2C)ccc1NC(=O)c1ccccc1 [TP-C2-7] | 54.53±0.58 | –
CCCOc1ccc(C(=O)NC(=S)Nc2ccc(NC(=O)c3ccc(C(C)(C)C)cc3)cc2)cc1 [TP-C3-52] | – | inhibition at 5 µg/mL: 7.88 ± 0.59%; IC50 [2]: 36.7 µM
CC1=C(C(=O)Nc2ccc(C)cc2C)C(c2ccc(O)cc2)NC(=S)N1 (stereo not drawn) [TP-C1-21] | 58.96±3.25 | –
O=C(Nc1ccccn1)c1cc(-c2ccncc2)nc2ccccc12 [TP-C2-54] | 60.19±2.33 | –
COc1ccc(Cl)cc1C(=O)NC(=S)Nc1ccc(NC(=O)c2ccccc2)c(C)c1 [TP-C3-27] | – | inhibition at 5 µg/mL: 47.9 ± 0.05%; IC50 [2]: 19.8 µM
NC(=O)c1ccccc1NC(=O)CSc1nc(O)c(-c2ccccc2)c(=O)[nH]1 [TP-C2-41] | 90.36±1.3 | IC50 [2]: 6.12 ± 0.81 µM
COc1cc(-c2nc3ccccn3c2N=Cc2c[nH]nc2-c2ccccc2)ccc1O [TP-C1-5] | 25.58±3.23 | –
O=c1[nH]nc(CCc2n[nH]c(=O)c3ccccc23)c2ccccc12 [TP-C2-1] | 48.48±7.49 | –
CCCCc1ccc(NC(=S)C2=C(NCc3ccc4c(c3)OCO4)CC(C)(C)CC2=O)cc1 [TP-C1-31] | 2.9±8.41 | Tie-2 inhibitory activity in words (active / inactive): inactive
CCOc1ccc(CN(CCc2ccc3c(c2)OCO3)Cc2ccc(C(F)(F)F)cc2)cc1 [TP-C2-6] | 49.69±0.95 | –
COc1ccc(OC)c(Nc2nc(-c3cccc(NC(=O)c4ccccc4)c3)cs2)c1 [TP-C2-14] | 71.64±2.92 | –
Cc1ccc2c(c1)C(Cc1nc3ccccc3c(=O)n1CCc1ccccc1)C(=O)N2 (stereo not drawn) [TP-C2-56] | 74.86±1.02 | –
CN1C(=O)c2ccc(C(=O)NCc3ccccn3)cc2C1=O [TP-C2-51] | 77.63±0.16 | –
COc1cc(NC(=S)NC(=O)c2ccc(C)cc2C)ccc1NC(=O)c1ccccc1Cl [TP-C3-21] | – | inhibition at 5 µg/mL: 71.19 ± 0.29%; IC50 [2]: 2.74 µM
c1cncc(CN2CN(CC3CCCO3)c3nc4ccccc4n3C2)c1 (racemic) [TP-C1-56] | 29.83±0.28 | –

SMILES | Inhibition (%) @10 μg/ml [1] [%] | also measured
Cc1ccc2nc(-c3ccc(NC(=S)NC(=O)c4oc5ccccc5c4C)cc3)oc2c1 [TP-C2-12] | 85.54±0.14 | IC50 [2]: 14.6 ± 1.21 µM
CC(=O)Nc1cccc(NC(=O)c2cc(-c3ccncc3)nc3ccc(Br)cc23)c1 [TP-C2-39] | 75.1±0.83 | –
Cc1ccc2nc(-c3ccccn3)cc(C(=O)NC3CCCc4ccccc43)c2c1 (stereo not drawn) [TP-C2-37] | 80.89±0.31 | IC50 [2]: 10.8 ± 0.83 µM
O=C(O)CC1SC(=NN=Cc2ccc(OC(=O)c3cccc4ccccc34)cc2)NC1=O (racemic) [TP-C2-19] | -280.42±23.11 | –
COc1ccc(C2C(C(=O)c3cccs3)=C(O)C(=O)N2CCN(C)C)cc1OC (racemic) [TP-C2-17] | 66.32±3.22 | –
Cc1cc(C(=O)c2ccccc2)ccc1OC(=O)CN1C(=O)c2ccccc2C1=O [TP-C1-42] | -27.08±4.67 | –
CCCOc1ccc(N2C(=O)CC(N(CCc3ccc(OC)cc3)C(=O)c3cccc(F)c3)C2=O)cc1 (stereo not drawn) [TP-C2-5] | 83.65±2.57 | IC50 [2]: 13.8 ± 1.02 µM
CC(C)(C)c1ccc(C(=O)Nc2ccc(NC(=S)NC(=O)c3ccccc3)cc2)cc1 [TP-C3-2] | – | inhibition at 5 µg/mL: 33.4 ± 1.74%; IC50 [2]: 27.1 µM; fold decrease in activity compared with compound TP-C3-3 (from IC50 values): ~ 10 fold
CC1(C)CC(=O)C(C(=S)Nc2ccccc2)=C(NCc2ccc3c(c2)OCO3)C1 [TP-C2-13] | 84.95±3.24 | IC50 [2]: 6.78 ± 0.36 µM
CC(=O)c1cccc(NC(=O)CSc2nnc(-c3ccccc3)c(=O)[nH]2)c1 [TP-C2-58] | 50.65±0.04 | –
COc1cccc(OC)c1C(=O)NC(=S)Nc1ccc(NC(=O)c2ccco2)c(Cl)c1 [TP-C1-49] | 49.58±1.56 | –
O=C(Nc1ccc2c(c1)OCCO2)C1CC(=O)N(CCc2c[nH]c3ccc(F)cc23)C1 (stereo not drawn) [TP-C2-57] | 48.64±1.91 | –
CC(=O)Oc1ccccc1NC(=O)c1ccc2c(c1)C(=O)N(CC1CCCO1)C2=O (stereo not drawn) [TP-C1-34] | 6.95±6.26 | –
CCOc1cc(-c2nc3sc4c(c3c(=O)[nH]2)CCCC4)ccc1OCc1ccccc1F [TP-C1-14] | 10.67±4.7 | –
O=C(c1n[nH]c(=O)c2ccccc12)N1CCOC(COc2ccccc2)C1 (stereo not drawn) [TP-C2-59] | 74.19±1.14 | –
CN(CCc1ccccn1)S(=O)(=O)c1ccc2c3c(cccc13)C(=O)N2 [TP-C2-25] | -113.04±17.27 | –
Cc1c(C)n(Cc2ccccc2)c2ccc(C(=O)NNC(=S)NCC3CCCO3)cc12 (stereo not drawn) [TP-C1-41] | 32.86±3.03 | –
O=C(NN=Cc1ccc(N2N=C(c3ccccc3)CC2c2ccccc2)cc1)c1ccncc1 (racemic) [TP-C1-6] | 16.08±16.2 | Tie-2 inhibitory activity in words (active / inactive): inactive
CCOc1ccc(NC(=O)C(C)Sc2nc3ccccc3c(=O)n2-c2cccc(C)c2)cc1 (racemic) [TP-C1-36] | 3.87±1.8 | –
COc1cccc(C2C(C(=O)c3ccc(C)o3)=C(O)C(=O)N2CCN(C)C)c1 (stereo not drawn) [TP-C1-25] | 3.13±1.45 | –
c1ccc(-c2nnc(CSc3nnc(-c4ccncc4)[nH]3)o2)cc1 [TP-C1-53] | 28.39±0.73 | –

SMILES | Inhibition (%) @10 μg/ml [1] [%] | also measured
O=C(NCc1ccco1)c1cc(-c2ccccn2)nc2ccc(Cl)cc12 [TP-C2-35] | 87.59±3.7 | IC50 [2]: 4.59 ± 0.29 µM
Cc1cc(NC(=S)NC(=O)c2ccc(Cl)c(Cl)c2)ccc1NC(=O)c1ccccc1 [TP-C3-29] | – | inhibition at 5 µg/mL: 57.95 ± 0.29%; IC50 [2]: 28.2 µM
COc1ccccc1C(=O)Nc1ccc(Oc2ccc3c(c2)C(=O)NC3=O)cc1 [TP-C1-51] | 54.56±1.99 | –
COc1ccc(-c2cc(-c3ccccc3)c(C#N)c(S(=O)(=O)Cc3ccccc3)n2)cc1 [TP-C1-35] | 69.07±3.54 | –
Cl.O=C(O)c1ccc(Cl)c(-c2ccc(CNCC(O)c3ccccc3)o2)c1 (stereo not drawn) [TP-C1-55] | 20.01±0.68 | –
CCOC(=O)c1ccc(NC(=O)CN2C(=O)c3ccccc3C2=O)cc1 [TP-C1-3] | 37.64±1.82 | –
O=C1c2ccccc2C(=O)N1CCc1nn2c(-c3cccnc3)nnc2s1 [TP-C1-52] | – | inhibition at 10 µg/mL [1]: 101 ± 2.04%; IC50 [2]: 15.3 ± 0.68 µM; fold decreased activity compared to TP-C1-17 and TP-C1-47 (from IC50 values): ~ 3 fold; IC50 (in the dose-response figure, read-out: IC50 (dose-dependent inhibitory effect), Tie-2 kinase (converted)): 15.3 µM
COc1cc(NC(=S)NC(=O)c2ccccc2OC)ccc1NC(=O)c1cc2ccccc2o1 [TP-C2-11] | 87.61±5.43 | IC50 [2]: 15.1 ± 0.92 µM
O=C(NC(=S)Nc1ccc(NC(=O)c2ccc(Cl)cc2Cl)cc1)c1ccccc1 [TP-C3-1] | – | inhibition at 5 µg/mL: 63 ± 0.86%; IC50 [2]: 1.85 µM
Cc1cc(S(=O)(=O)Nc2ccc(F)cc2)ccc1OCC(=O)NCc1cccnc1 [TP-C2-53] | 77.43±0.89 | –
COc1cc(C=NN=C2SC(CC(=O)O)C(=O)N2c2ccc(O)cc2)ccc1O (stereo not drawn) [TP-C1-11] | 37.56±1.85 | –
O=C(CSc1nnc(-c2cccnc2)n1-c1ccccc1)c1ccc(F)cc1 [TP-C1-28] | 71.3±0.7 | IC50 [2]: 43.6 ± 2.32 µM
O=C(NCc1n[nH]c(=O)c2ccccc12)c1cc2ccccc2oc1=O [TP-C2-32] | 66.52±7.26 | –
COc1cc2c(cc1OC)C(c1ccc(OCc3ccccc3)cc1)CC(=O)N2 (racemic) [TP-C2-27] | 55.28±4.04 | –
c1ccc(-c2nnc3n2N=C(c2c[nH]c4ccccc24)CS3)cc1 [TP-C1-50] | 61.04±3.33 | –
NS(=O)(=O)c1ccc(CCNC(=O)c2cc(-c3ccncc3)nc3ccc(Cl)cc23)cc1 [TP-C2-38] | 89.98±1.62 | IC50 [2]: 7.88 ± 0.35 µM
O=C(c1cc(-c2ccncc2)nc2ccc(Br)cc12)N1CCN(Cc2ccc3c(c2)OCO3)CC1 [TP-C1-45] | 63.88±1.45 | –
Cc1cccc(-n2c(CCN3C(=O)c4ccccc4C3=O)nc3ccccc3c2=O)c1 [TP-C1-10] | 44.25±1.05 | –
Cc1c(C(=O)NC(=S)Nc2ccc(-c3nc4ccccc4s3)cc2)oc2ccccc12 [TP-C2-16] | 84.1±0.44 | IC50 [2]: 8.83 ± 0.58 µM

Source: paper PMC5120310, “In Silico Exploration for Novel Type-I Inhibitors of Tie-2/TEK: The Performance of Different Selection Strategy in Selecting Virtual Screening Candidates” (Scientific Reports, 2016)
